We go through 13 molecules from paper PMC7345083, “Vancomycin-Lipopeptide Conjugates with High Antimicrobial Activity on Vancomycin-Resistant Enterococci” (Pharmaceuticals, 2020).

Values after ≈ are worked out from the molar mass of the structure shown.

The subject of this experiment is Enterococcus faecium UL602570 (vanA, clinical isolate). The format is cell-based. Particulars: UL602570 (vanA, clinical isolate, 18 h). As for the experimental part:
The minimum inhibitory concentration (MIC) was determined by microdilution following the EUCAST and CLSI guidelines via the broth microdilution assay on a 96-well plate. Substances were dissolved in saline solution (0.9%) at a concentration equimolar to 1.28 mg/mL vancomycin. With an increasing hydrophobicity, some substances had to be pre-dissolved in DMSO. The final concentration of DMSO remained below 1.5% and was compared to the DMSO control (no antimicrobial effect was observed up to the highest concentration tested (10%)). All substances were serially diluted on the 96-well plate using Mueller-Hinton-Broth II (cation adjusted). Vancomycin was always used as a control. For bacterial loading, an overnight culture of the referring strain was taken and adjusted to a turbidity corresponding to 10^8 cfu/mL. The bacterial suspension was further diluted to load a bacterial number of 10^6 cfu/mL on the 96-well plate and incubate it for 18 h at 35 ± 1 °C, as described before. MIC was defined as the lowest concentration without visible growth.
For the molecule `CCCCCC(=O)N[C@@H](CCCNC(=N)N)C(=O)N[C@@H](CCCNC(=N)N)C(=O)N[C@@H](CCCNC(=N)N)C(=O)N[C@@H](CSC1CC(=O)N(CC2CCC(C(=O)NCCNC(=O)[C@H]3NC(=O)[C@H]4NC(=O)[C@H](NC(=O)[C@@H]5NC(=O)[C@H](CC(N)=O)NC(=O)[C@H](NC(=O)[C@@H](CC(C)C)NC)[C@H](O)c6ccc(c(Cl)c6)Oc6cc5cc(c6O[C@@H]5O[C@H](CO)[C@@H](O)[C@H](O)[C@H]5O[C@H]5C[C@](C)(N)[C@H](O)[C@H](C)O5)Oc5ccc(cc5Cl)[C@H]4O)c4ccc(O)c(c4)-c4c(O)cc(O)cc43)CC2)C1=O)C(N)=O` (stereo partly shown) [VC-R3C-C6], the MIC median was determined as 106.00 µg/mL (≈ 44.2 µM).

In turn, `CCCCCCCC(=O)N[C@@H](CCCNC(=N)N)C(=O)N[C@@H](CCCNC(=N)N)C(=O)N[C@@H](CCCNC(=N)N)C(=O)N[C@@H](CSC1CC(=O)N(CC2CCC(C(=O)NCCNC(=O)[C@H]3NC(=O)[C@H]4NC(=O)[C@H](NC(=O)[C@@H]5NC(=O)[C@H](CC(N)=O)NC(=O)[C@H](NC(=O)[C@@H](CC(C)C)NC)[C@H](O)c6ccc(c(Cl)c6)Oc6cc5cc(c6O[C@@H]5O[C@H](CO)[C@@H](O)[C@H](O)[C@H]5O[C@H]5C[C@](C)(N)[C@H](O)[C@H](C)O5)Oc5ccc(cc5Cl)[C@H]4O)c4ccc(O)c(c4)-c4c(O)cc(O)cc43)CC2)C1=O)C(N)=O` (stereo partly shown) [VC-R3C-C8] showed an MIC median of 9.54 µg/mL (≈ 3.93 µM) and an MIC range of 9.54 to 19.08 µg/mL.

`CCCCCCCCCC(=O)N[C@@H](CCCNC(=N)N)C(=O)N[C@@H](CCCNC(=N)N)C(=O)N[C@@H](CCCNC(=N)N)C(=O)N[C@@H](CSC1CC(=O)N(CC2CCC(C(=O)NCCNC(=O)[C@H]3NC(=O)[C@H]4NC(=O)[C@H](NC(=O)[C@@H]5NC(=O)[C@H](CC(N)=O)NC(=O)[C@H](NC(=O)[C@@H](CC(C)C)NC)[C@H](O)c6ccc(c(Cl)c6)Oc6cc5cc(c6O[C@@H]5O[C@H](CO)[C@@H](O)[C@H](O)[C@H]5O[C@H]5C[C@](C)(N)[C@H](O)[C@H](C)O5)Oc5ccc(cc5Cl)[C@H]4O)c4ccc(O)c(c4)-c4c(O)cc(O)cc43)CC2)C1=O)C(N)=O` (stereo partly shown) [VC-R3C-C10] returned an MIC median of 4.77 µg/mL (≈ 1.94 µM) and an MIC range of 4.77 to 9.53 µg/mL.

The molecule `CCCCCCCCCCCCCC(=O)N[C@@H](CCCNC(=N)N)C(=O)N[C@@H](CCCNC(=N)N)C(=O)N[C@@H](CCCNC(=N)N)C(=O)N[C@@H](CSC1CC(=O)N(CC2CCC(C(=O)NCCNC(=O)[C@H]3NC(=O)[C@H]4NC(=O)[C@H](NC(=O)[C@@H]5NC(=O)[C@H](CC(N)=O)NC(=O)[C@H](NC(=O)[C@@H](CC(C)C)NC)[C@H](O)c6ccc(c(Cl)c6)Oc6cc5cc(c6O[C@@H]5O[C@H](CO)[C@@H](O)[C@H](O)[C@H]5O[C@H]5C[C@](C)(N)[C@H](O)[C@H](C)O5)Oc5ccc(cc5Cl)[C@H]4O)c4ccc(O)c(c4)-c4c(O)cc(O)cc43)CC2)C1=O)C(N)=O` (stereo partly shown) [VC-R3C-C14] returned an MIC median of 2.45 µg/mL (≈ 0.976 µM) and an MIC range of 2.45 to 4.91 µg/mL.

Consider `CCCCCCCCCCCCCCCC(=O)N[C@@H](CCCNC(=N)N)C(=O)N[C@@H](CCCNC(=N)N)C(=O)N[C@@H](CCCNC(=N)N)C(=O)N[C@@H](CSC1CC(=O)N(CC2CCC(C(=O)NCCNC(=O)[C@H]3NC(=O)[C@H]4NC(=O)[C@H](NC(=O)[C@@H]5NC(=O)[C@H](CC(N)=O)NC(=O)[C@H](NC(=O)[C@@H](CC(C)C)NC)[C@H](O)c6ccc(c(Cl)c6)Oc6cc5cc(c6O[C@@H]5O[C@H](CO)[C@@H](O)[C@H](O)[C@H]5O[C@H]5C[C@](C)(N)[C@H](O)[C@H](C)O5)Oc5ccc(cc5Cl)[C@H]4O)c4ccc(O)c(c4)-c4c(O)cc(O)cc43)CC2)C1=O)C(N)=O` (stereo partly shown) [VC-R3C-C16], for which the MIC median was determined as 5.00 µg/mL (≈ 1.97 µM) and the MIC range fell in the range of 5.00 to 10.00 µg/mL.

For the molecule `CCCCCCCCCCCCCCCCCC(=O)N[C@@H](CCCNC(=N)N)C(=O)N[C@@H](CCCNC(=N)N)C(=O)N[C@@H](CCCNC(=N)N)C(=O)N[C@@H](CSC1CC(=O)N(CC2CCC(C(=O)NCCNC(=O)[C@H]3NC(=O)[C@H]4NC(=O)[C@H](NC(=O)[C@@H]5NC(=O)[C@H](CC(N)=O)NC(=O)[C@H](NC(=O)[C@@H](CC(C)C)NC)[C@H](O)c6ccc(c(Cl)c6)Oc6cc5cc(c6O[C@@H]5O[C@H](CO)[C@@H](O)[C@H](O)[C@H]5O[C@H]5C[C@](C)(N)[C@H](O)[C@H](C)O5)Oc5ccc(cc5Cl)[C@H]4O)c4ccc(O)c(c4)-c4c(O)cc(O)cc43)CC2)C1=O)C(N)=O` (stereo partly shown) [VC-R3C-C18], the MIC median is 10.17 µg/mL (≈ 3.96 µM) and the MIC range lay within 5.08 to 10.17 µg/mL.

The molecule `CN[C@H](CC(C)C)C(=O)N[C@H]1C(=O)N[C@@H](CC(N)=O)C(=O)N[C@H]2C(=O)N[C@H]3C(=O)N[C@H](C(=O)N[C@H](C(=O)NCCNC(=O)C4CCC(CN5C(=O)CC(SC[C@H](NC(=O)[C@H](CCCNC(=N)N)NC(=O)[C@H](CCCNC(=N)N)NC(=O)[C@@H](N)CCCNC(=N)N)C(N)=O)C5=O)CC4)c4cc(O)cc(O)c4-c4cc3ccc4O)[C@H](O)c3ccc(c(Cl)c3)Oc3cc2cc(c3O[C@@H]2O[C@H](CO)[C@@H](O)[C@H](O)[C@H]2O[C@H]2C[C@](C)(N)[C@H](O)[C@H](C)O2)Oc2ccc(cc2Cl)[C@H]1O` (stereo partly shown) [VC-R3C] yielded an MIC median of 34.75 µg/mL (≈ 15.1 µM) and an MIC range of 17.38 to 34.75 µg/mL.

`CCCCCC(=O)N[C@@H](CCCNC(=N)N)C(=O)N[C@@H](CCCNC(=N)N)C(=O)N[C@@H](CCCNC(=N)N)C(=O)N[C@@H](CSC1CC(=O)N(CC2CCC(C(=O)N(C)[C@H](CC(C)C)C(=O)N[C@H]3C(=O)N[C@@H](CC(N)=O)C(=O)N[C@H]4C(=O)N[C@H]5C(=O)N[C@H](C(=O)N[C@H](C(=O)O)c6cc(O)cc(O)c6-c6cc5ccc6O)[C@H](O)c5ccc(c(Cl)c5)Oc5cc4cc(c5O[C@@H]4O[C@H](CO)[C@@H](O)[C@H](O)[C@H]4O[C@H]4C[C@](C)(N)[C@H](O)[C@H](C)O4)Oc4ccc(cc4Cl)[C@H]3O)CC2)C1=O)C(N)=O` (stereo partly shown) [VN-R3C-C6] registered an MIC median of 72.00 µg/mL (≈ 30.6 µM) and an MIC range of 36.00 to 72.00 µg/mL.

In the case of `CCCCCCCC(=O)N[C@@H](CCCNC(=N)N)C(=O)N[C@@H](CCCNC(=N)N)C(=O)N[C@@H](CCCNC(=N)N)C(=O)N[C@@H](CSC1CC(=O)N(CC2CCC(C(=O)N(C)[C@H](CC(C)C)C(=O)N[C@H]3C(=O)N[C@@H](CC(N)=O)C(=O)N[C@H]4C(=O)N[C@H]5C(=O)N[C@H](C(=O)N[C@H](C(=O)O)c6cc(O)cc(O)c6-c6cc5ccc6O)[C@H](O)c5ccc(c(Cl)c5)Oc5cc4cc(c5O[C@@H]4O[C@H](CO)[C@@H](O)[C@H](O)[C@H]4O[C@H]4C[C@](C)(N)[C@H](O)[C@H](C)O4)Oc4ccc(cc4Cl)[C@H]3O)CC2)C1=O)C(N)=O` (stereo partly shown) [VN-R3C-C8], the MIC median came to 18.31 µg/mL (≈ 7.68 µM) and the MIC range was in the range of 9.16 to 18.31 µg/mL.

As for `CCCCCCCCCC(=O)N[C@@H](CCCNC(=N)N)C(=O)N[C@@H](CCCNC(=N)N)C(=O)N[C@@H](CCCNC(=N)N)C(=O)N[C@@H](CSC1CC(=O)N(CC2CCC(C(=O)N(C)[C@H](CC(C)C)C(=O)N[C@H]3C(=O)N[C@@H](CC(N)=O)C(=O)N[C@H]4C(=O)N[C@H]5C(=O)N[C@H](C(=O)N[C@H](C(=O)O)c6cc(O)cc(O)c6-c6cc5ccc6O)[C@H](O)c5ccc(c(Cl)c5)Oc5cc4cc(c5O[C@@H]4O[C@H](CO)[C@@H](O)[C@H](O)[C@H]4O[C@H]4C[C@](C)(N)[C@H](O)[C@H](C)O4)Oc4ccc(cc4Cl)[C@H]3O)CC2)C1=O)C(N)=O` (stereo partly shown) [VN-R3C-C10], the MIC median was 4.66 µg/mL (≈ 1.93 µM) and the MIC range lay in the range of 4.66 to 9.31 µg/mL.

In turn, `CCCCCCCCCCCCCC(=O)N[C@@H](CCCNC(=N)N)C(=O)N[C@@H](CCCNC(=N)N)C(=O)N[C@@H](CCCNC(=N)N)C(=O)N[C@@H](CSC1CC(=O)N(CC2CCC(C(=O)N(C)[C@H](CC(C)C)C(=O)N[C@H]3C(=O)N[C@@H](CC(N)=O)C(=O)N[C@H]4C(=O)N[C@H]5C(=O)N[C@H](C(=O)N[C@H](C(=O)O)c6cc(O)cc(O)c6-c6cc5ccc6O)[C@H](O)c5ccc(c(Cl)c5)Oc5cc4cc(c5O[C@@H]4O[C@H](CO)[C@@H](O)[C@H](O)[C@H]4O[C@H]4C[C@](C)(N)[C@H](O)[C@H](C)O4)Oc4ccc(cc4Cl)[C@H]3O)CC2)C1=O)C(N)=O` (stereo partly shown) [VN-R3C-C14] had an MIC median of 2.41 µg/mL (≈ 0.977 µM) and an MIC range of 2.41 to 4.81 µg/mL.

The molecule `CCCCCCCCCCCCCCCC(=O)N[C@@H](CCCNC(=N)N)C(=O)N[C@@H](CCCNC(=N)N)C(=O)N[C@@H](CCCNC(=N)N)C(=O)N[C@@H](CSC1CC(=O)N(CC2CCC(C(=O)N(C)[C@H](CC(C)C)C(=O)N[C@H]3C(=O)N[C@@H](CC(N)=O)C(=O)N[C@H]4C(=O)N[C@H]5C(=O)N[C@H](C(=O)N[C@H](C(=O)O)c6cc(O)cc(O)c6-c6cc5ccc6O)[C@H](O)c5ccc(c(Cl)c5)Oc5cc4cc(c5O[C@@H]4O[C@H](CO)[C@@H](O)[C@H](O)[C@H]4O[C@H]4C[C@](C)(N)[C@H](O)[C@H](C)O4)Oc4ccc(cc4Cl)[C@H]3O)CC2)C1=O)C(N)=O` (stereo partly shown) [VN-R3C-C16] returned an MIC median of 2.45 µg/mL (≈ 0.982 µM) and an MIC range of 2.45 to 4.89 µg/mL.

In turn, `CCCCCCCCCCCCCCCCCC(=O)N[C@@H](CCCNC(=N)N)C(=O)N[C@@H](CCCNC(=N)N)C(=O)N[C@@H](CCCNC(=N)N)C(=O)N[C@@H](CSC1CC(=O)N(CC2CCC(C(=O)N(C)[C@H](CC(C)C)C(=O)N[C@H]3C(=O)N[C@@H](CC(N)=O)C(=O)N[C@H]4C(=O)N[C@H]5C(=O)N[C@H](C(=O)N[C@H](C(=O)O)c6cc(O)cc(O)c6-c6cc5ccc6O)[C@H](O)c5ccc(c(Cl)c5)Oc5cc4cc(c5O[C@@H]4O[C@H](CO)[C@@H](O)[C@H](O)[C@H]4O[C@H]4C[C@](C)(N)[C@H](O)[C@H](C)O4)Oc4ccc(cc4Cl)[C@H]3O)CC2)C1=O)C(N)=O` (stereo partly shown) [VN-R3C-C18] registered an MIC median of 4.97 µg/mL (≈ 1.97 µM) and an MIC range of 2.48 to 4.97 µg/mL.
